In patent US20090238852A1, “METHODS FOR CONTROLLING INTRACELLULAR CALCIUM LEVELS ASSOCIATED WITH AN ISCHEMIC EVENT” (University of Utah Research Foundation, priority 2008, published 2009):
Read-outs that look alike come from different tables or passages of the source.

Tests used:
[1] = tested on: platelets with HIT antibody; assay: Serotonin release assay (SRA) with HIT-positive serum; details: ODSH added with heparin to the HIT antibody
Procedure: Two techniques were employed to measure platelet activation in response to heparin or 2-O desulfated heparin in the presence of HIT-reactive serum.
The first technique was the serotonin release assay (SRA), considered the gold standard laboratory test for HIT, and performed as described by Sheridan (Sheridan D, et al. Blood 67:27-30, 1986). Washed platelets were loaded with ^14C serotonin (^14C-hydroxy-tryptamine-creatine sulfate, Amersham), and then incubated with various concentrations of test heparin or heparin analog in the presence of serum from known HIT-positive patients as a source of antibody. Activation was assessed as ^14C serotonin release from platelets during activation, with ^14C serotonin quantitated using a liquid scintillation counter. […] Activated platelets are defined as percent isotope release of ≧20%.
The initial 3 ml (milliliters) of whole blood in the first syringe was discarded. The anticoagulated blood was centrifuged (80×g (gravity), 15 min, room temperature) to obtain platelet rich plasma (PRP). […] EDTA was added to stop the reaction, and the mixture was centrifuged to pellet the platelets. ^14C-serotonin released into the supernatant was measured on a scintillation counter. Maximal release was measured following platelet lysis with 10% Triton X-100. […]

[2] = in vivo
Procedure: A study was performed in 38 volunteer human subjects to assess the safety of escalating bolus doses of 2-O, 3-O desulfated heparin (ODSH). The study was a Phase I, randomized, double-blind, dose-escalation study with a single-day treatment period. Subjects were between the ages of 18 and 45, were not pregnant, and were normal in body weight. They all had normal coagulation function and hemoglobin values at baseline.
Two subjects also received an injection of fully anticoagulated unfractionated heparin for comparison. ODSH dose groups were run in a series, and safety and tolerance data were evaluated prior to the start of the next dose level (4, 8 12, 16 and 20 mg/kg bolus intravenous doses). Twenty eight (28) subjects randomly received ODSH and 9 subjects were randomized to receive placebo, with an additional two subjects receiving commercially available unfractionated heparin.
For each bolus dose, ODSH as a 50 mg/mL formulation was diluted with normal saline and a total volume of 50 ml was infused over 15 minutes containing the calculated amount of ODSH the subject was to receive. Placebo consisted of 50 mL of normal saline infused over 15 minutes. For subjects receiving heparin, 5,000 units (approximately 0.5 mg/kg) of heparin was diluted into 50 ml of normal saline and infused over 15 minutes.
Immediately before infusion and beginning 7 minutes after the start of each infusion, blood was drawn at periodic times for 24 hours to monitor the effect of infusion on the following laboratory studies: activated partial thromboplastin time (aPTT); prothrombin time (PT); activated clotting time (ACT); and ODSH plasma level. Serum chemistries and a complete blood count were checked immediately before infusion and at eight (8) and twenty-four (24) hours later. Using values for aPTT and ODSH levels, pharmacokinetic parameters were calculated by noncompartmental methods using a commercial software program (PhAST 2.3-001). The following pharmacokinetic parameters were calculated: • a) Maximum measured plasma concentration (Cmax); • b) First-order terminal elimination rate constant (Kel), calculated from a semi-log plot of the serum concentration versus time curve; this parameter was calculated by linear least-square regression analysis using the maximum number of points in the terminal log-linear phase (e.g., 3 or more non-zero serum concentrations); • c) Time of the maximum measured drug plasma concentration (tmax); • d) The area under the plasma concentration versus time curve from time 0 to the last observation (AUC 0-t), calculated by the linear trapezoidal method; • e) The area under the plasma concentration versus time curve from time 0 to infinity (AUCinf), which was calculated as the sum of AUC 0-t plus the ratio of the last measurable serum concentration to the elimination rate constant; • f) First-order terminal elimination (t1/2), calculated as 0.693/Kel; • g) Total body clearance (CL), calculated as Dose/AUCinf, and • h) Total volume of distribution (Vdss), calculated as MRT×CL.

[3] = tested on: rabbit ventricular myocytes; assay: [Ca^++]i during paced aerobic metabolism (PH) with the Na^+ channel opener ATX; type: cell-based; details: n = 7
Procedure: In these studies, intracellular calcium concentration [Ca^++]i was measured by flow cytometry. Measurement of isolated mouse and rabbit ventricular myocyte [Ca^2+]i and [Na^+]i by flow cytometry has been described (Zhang et al., J. Cardiovasc. Pharmacol. 51: 443-449 (2008); Li et al., J. Mol. Cell. Cardiol. 33: 2145-2155 (2001)). [Ca^++]i was measured with the Ca^++ sensitive fluorescent probe, Fluo 3-AM (Molecular Probes, Eugene, Oreg.), using a FACScan (Becton-Dickinson, MA). The cells were exposed to 4 μmol/L Fluo-3 AM for 30 min at 37° C. The cells were then separated into aliquots. After 40 min of wash, the cells were exposed to paced metabolic ischemia (MI) for 45 min at 37° C. Metabolic ischemia was accomplished by incubating cells in a glucose-free MKRBB solution (pH 7.40) containing 2 mmol/L sodium cyanide (NaCN) to impair mitochondrial and glycolytic generation of ATP. To reproduce the situation in the beating ischemic heart, during the period of metabolic ischemia, myocytes were placed in a 5-well chamber with equal volumes of myocyte suspensions from the same heart dissociation placed in each well. The chamber was water bathed to maintain temperature at 37° C. and bubbled with 5% CO2 in air to keep myocytes in suspension. […] Approximately 2×10^3 myocytes were analyzed to calculate average emission fluorescence intensity in each sample. […] Only those cells with low fluorescence intensity at 670 nm (PI-negative cells or viable cells) were included in the comparative analysis of [Ca^++]i. The sample [Ca^2+]i values were calculated by Mn^2+ quenching (Sugishita et al, 2001) and [Na^+]i values by comparison with a standard curve of varied [Na^+]i versus Na Green fluorescence. […] Results were expressed as means±SEM. […]
To further examine the role of ODSH as a Na^+ inhibitor, additional experiments were performed in which the Na^+ channel opener amenone toxin II (ATX) was added to medium in a final concentration of 20 nmol/L to open the cardiac myocyte membrane Na^+ channel. […] Intracellular calcium concentration [Ca^++]i was monitored as earlier. […]

anti-Xa = details: product of the procedure of U.S. Pat. No. 5,990,097; cited from earlier work
[4] = tested on: platelets with HIT antibody
Procedure: The second technique employed was flow cytometric platelet analysis. In this functional test, platelets in whole blood are activated by heparin or heparin analog in the presence of heparin antibody in serum from a patient clinically diagnosed with HIT. Using flow cytometry, platelet activation was determined in two manners: by the formation of platelet microparticles and by the increase of platelet surface bound P-selectin.
Specifically, whole blood drawn by careful double-syringe technique was anticoagulated with hirudin (10 μg/ml final concentration). An aliquot of whole blood (50 μL) was immediately fixed in 1 ml 1% paraformaldehyde (gating control). […] Samples were analyzed on an EPICS XL flow cytometer (Beckman-Couter; Hialeah, Fla.) for forward angle (FALS) and side angle light scatter, and for FITC and PE (phycoerythrin) fluorescence. […]
Using the gating control sample, amorphous regions were drawn to include single platelets and platelet microparticles. Platelet microparticles were distinguished from platelets on the basis of their characteristic flow cytometric profile of cell size (FALS) and FITC fluorescence (CD61 platelet marker). […] Data was reported as a percentage of the total number of CD61-positive events analyzed.

[5] = human, in vivo
Procedure: A study was performed in eight (8) healthy adult male and female subjects to assess the effects of a bolus dose and 72 hour infusion of 2-O, 3-O desulfated heparin. The study was a Phase I study with a three day treatment period. Doses were adjusted to maintain an aPTT level of 40-45 seconds. Subjects were between the ages of 18 and 60, were not pregnant, and were normal in body weight. They all had normal coagulation function and hemoglobin values at baseline.
Subjects received an initial bolus of 8 mg/kg of ODSH over 15 minutes, followed by 72 hours continuous infusion beginning at 0.58 mg/kg/hr. For each subject ODSH as a 50 mg/ml formulation was diluted with normal saline and administered as a bolus infused over 15 minutes containing the calculated amount of ODSH the subject was to receive, followed by infusion of ODSH diluted in saline. The infusion dose was adjusted to maintain an aPTT of 40-45 seconds. Immediately before infusion and after the start of each infusion, blood was drawn at periodic times (over a total 72 hour period) to monitor the effect of infusion on the following laboratory studies: activated partial thromboplastin time (aPTT), prothrombin time (PT), activated clotting time (ACT), and ODSH plasma level. Serum chemistries and a complete blood count were checked immediately before infusion and again periodically for up to 240 hours later. Using values for aPTT and ODSH levels, pharmacokinetic parameters were calculated by noncompartmental methods using a commercial software program (PhAST 2.3-001). The following pharmacokinetic parameters were calculated as above: Cmax; Kel; tmax; AUC O-t; AUCinf, t1/2; CL; and Vdss.

[6] = tested on: anti-coagulant activity (USP); details: product of the procedure of U.S. Pat. No. 5,990,097; cited from earlier work

2-O, 3-O desulfated heparin [ODSH]
effect on heparin-induced platelet activation [1]: prevented heparin from causing platelet activation | Mean clearance values, range over the dose groups ([2]; human, iv): 0.172 to 0.257 mL/min/kg | Mean elimination half-life values, range over the dose groups ([2]; human, iv): 1.93 to 2.72 h | Median tmax values, range over the dose groups ([2]; human, iv): 0.37 to 0.88 h | AUC 0-t ([2]; human, iv, 4 mg/kg): 307.2 µg·h/mL | AUCinf ([2]; human, iv, 4 mg/kg): 415.2 µg·h/mL | CL ([2]; human, iv, 4 mg/kg): 0.1709 ± 0.064973 mL/min/kg | Cmax ([2]; human, iv, 4 mg/kg): 130.76 µg/mL | MRT ([2]; human, iv, 4 mg/kg): 3.780 ± 1.6710 h | Vdss ([2]; human, iv, 4 mg/kg): 0.03495 ± 0.011679 L/kg | t1/2 ([2]; human, iv, 4 mg/kg): 2.585 ± 1.1225 h | tmax ([2]; human, iv, 4 mg/kg): 0.47 h | AUC 0-t ([2]; human, iv, 8 mg/kg): 461.9 µg·h/mL | AUCinf ([2]; human, iv, 8 mg/kg): 629.2 µg·h/mL | CL ([2]; human, iv, 8 mg/kg): 0.2147 ± 0.039202 mL/min/kg | Cmax ([2]; human, iv, 8 mg/kg): 163.74 µg/mL | MRT ([2]; human, iv, 8 mg/kg): 2.775 ± 0.6087 h | Vdss ([2]; human, iv, 8 mg/kg): 0.03513 ± 0.00658 L/kg | t1/2 ([2]; human, iv, 8 mg/kg): 1.933 ± 0.4537 h | tmax ([2]; human, iv, 8 mg/kg): 0.37 h | AUC 0-t ([2]; human, iv, 12 mg/kg): 619.1 µg·h/mL | AUCinf ([2]; human, iv, 12 mg/kg): 1086.5 µg·h/mL | CL ([2]; human, iv, 12 mg/kg): 0.1867 ± 0.036203 mL/min/kg | Cmax ([2]; human, iv, 12 mg/kg): 179.28 µg/mL | MRT ([2]; human, iv, 12 mg/kg): 3.894 ± 0.9516 h | Vdss ([2]; human, iv, 12 mg/kg): 0.04212 ± 0.00317 L/kg | t1/2 ([2]; human, iv, 12 mg/kg): 2.724 ± 0.6667 h | tmax ([2]; human, iv, 12 mg/kg): 0.88 h | AUC 0-t ([2]; human, iv, 16 mg/kg): 886.9 µg·h/mL | AUCinf ([2]; human, iv, 16 mg/kg): 1075.8 µg·h/mL | CL ([2]; human, iv, 16 mg/kg): 0.25607 ± 0.067503 mL/min/kg | Cmax ([2]; human, iv, 16 mg/kg): 285.38 µg/mL | MRT ([2]; human, iv, 16 mg/kg): 3.287 ± 1.0560 h | Vdss ([2]; human, iv, 16 mg/kg): 0.04725 ± 0.007944 L/kg | t1/2 ([2]; human, iv, 16 mg/kg): 2.261 ± 0.8548 h | tmax ([2]; human, iv, 16 mg/kg): 0.50 h | AUC 0-t ([2]; human, iv, 20 mg/kg): 1322.1 µg·h/mL | AUCinf ([2]; human, iv, 20 mg/kg): 1638.7 µg·h/mL | CL ([2]; human, iv, 20 mg/kg): 0.20877 ± 0.003483 mL/min/kg | Cmax ([2]; human, iv, 20 mg/kg): 366.73 µg/mL | MRT ([2]; human, iv, 20 mg/kg): 3.639 ± 0.6670 h | Vdss ([2]; human, iv, 20 mg/kg): 0.04556 ± 0.008256 L/kg | t1/2 ([2]; human, iv, 20 mg/kg): 2.637 ± 0.4765 h | tmax ([2]; human, iv, 20 mg/kg): 0.50 h | ODSH plasma levels produced [2]: > 300 µg/mL | [Ca^++]i ([3]; PH + ODSH 100 μg/mL + ATX 20 nmol/L, PH + ATX 529.1 ± 29.3): 412.9 ± 26.7^+ nM | [Ca^++]i ([3]; PH + ODSH 100 μg/mL, no ATX, PH alone 406.8 ± 15.9): 366.4 ± 21.1 nM | anti-Xa anti-coagulant activity (anti-Xa): less than 10 U/mg | platelet microparticle formation versus saline control [4]: no level of platelet microparticle formation above that of the saline control incubations | CL [5]: 0.17 mL/min/kg | Vdss [5]: 0.0489 L/kg | t1/2 [5]: 3.3 h | tmax [5]: 0.5 h | AUC, range across subjects ([5]; 8 mg/kg): 3,528-4,694 μg hr/mL | CL, range across subjects ([5]; 8 mg/kg): 0.147 to 0.197 mL/min/kg | Cmax, range across subjects ([5]; 8 mg/kg): 131 to 192 µg/mL | Vdss, range across subjects ([5]; 8 mg/kg): 0.0237 to 0.0662 L/kg | t1/2, range across subjects ([5]; 8 mg/kg): 1.9 to 4.4 h | anti-coagulant activity [6]: less than 10 USP units/mg
